According to patent publication US20230123334A1, “AMINO LIPID COMPOUND, PREPARATION METHOD THEREFOR, AND APPLICATION THEREOF” (SHENZHEN SHENXIN BIOTECHNOLOGY CO., LTD., priority 2020, published 2023):

Assays:
[1] = test system: HEK293 cells; experiment: Preliminary screening as DNA vectors, GFP transfection of HEK293 cells; format: cell-based; settings: HEK293 cells; lipid/DOPE liposome with 75 ng plasmid DNA (psin-EGFP-IRES-Puro); number of cells expressing GFP divided by total number of nuclei (Hoechst)
Method in brief: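 Lipid + DOPE liposomes (NaOAc, pH 5.6) complexed w/ 75 ng psin-EGFP-IRES-Puro, 30 min RT; added to 3-5×10^4 HEK293/well, 37° C. Hoechst 0.2 μg/mL at 20-24 h, imaged after further 20-24 h. Efficiency = GFP+ cells / total nuclei.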

[2] = test system: HEK293 cells; experiment: Preliminary screening as mRNA vectors, EGFP mRNA transfection of HEK293 cells; format: cell-based; settings: HEK293 cells, 96-well plates, EGFP mRNA 50 ng per well; percentage of GFP fluorescent cells relative to total number of cells (Hoechst)
Method in brief: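 Each well of HEK293 cells received 50 ng of EGFP mRNA. Efficiency was expressed as percent GFP-expressing cells over Hoechst-defined total cell number.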

| SMILES | Absolute DNA transfection efficiency in HEK293 cells [1] | Absolute mRNA transfection efficiency in HEK293 cells [2] |
| --- | --- | --- |
| CCCCCCCCCCCCCCCSc1nc(NCCCN2CCOCC2)nc(SCCCCCCCC)n1 [Compound S8S15D8] | 23.0% | 8.0% |
| CCCCCCCCCCCCCCCCNc1nc(NCCCCCCCCCCCCCCC)nc(NCCCN2CCN(C)CC2)n1 [Compound N15N16D9] | 2.1% | 1.7% |
| CCCCCCCCCNc1nc(NCCCCCC)nc(NCCN2CCOCC2)n1 [Compound N6N9D2] | 0.0% | 0.0% |
| CCCCCCCCNc1nc(NCCCCCCCC)nc(NCCCN2CCN(C)CC2)n1 [Compound N8N8D9] | 0.7% | 0.0% |
| CCCCCCCCCCCCCCCCSc1nc(NCCCN(C)C)nc(SCCCCCCCCCCC)n1 [Compound S11S16D6] | 2.7% | 9.3% |
| CCCCCCCCCCCCCNc1nc(NCCCCCCCCCCCC)nc(NCCCN(C)C)n1 [Compound N12N13D6] | 0.5% | 1.0% |
| CCCCCCCCCCCCCCSc1nc(NCC2CCN(C)CC2)nc(SCCCCCCCCCCCCCC)n1 [Compound S14S14D10] | 0.9% | 1.5% |
| CCCCCCCCCCCCCCCCNc1nc(NCCCCCCCCCCCCCCCC)nc(NCCN2CCCCC2)n1 [Compound N16N16D4] | 0.9% | 0.0% |
| CCCCCCCCCCCCSc1nc(NCCN2CCOCC2)nc(SCCCCCCCCCCC)n1 [Compound S11S12D2] | 0.1% | 0.0% |
| CCCCCCCCCCCCCCSc1nc(NCCN2CCCCC2)nc(SCCCCCCCCCCCC)n1 [Compound S12S14D4] | 6.7% | 14.0% |
| CCCCCCCCCCCCCCCCCCNc1nc(NCCCCCCCCCCCC)nc(NCCCN2CCN(C)CC2)n1 [Compound N12N18D9] | 0.1% | 0.7% |
| CCCCCCCCCCCCNc1nc(NCCN(C)C)nc(N(CCCCCCCCCCCC)CCCCCCCCCCCC)n1 [N12^2N12D1] | 0.5% | 2.8% |
| CCCCCCCCCCCCCCCCNc1nc(NCCCCCCC)nc(NCCN2CCCCC2)n1 [Compound N7N16D4] | 0.0% | 0.0% |
| CCCCCCCCCCCCCCCCNc1nc(NCCCCCCCCC)nc(NCCN2CCCCC2)n1 [Compound N9N16D4] | 0.8% | 4.5% |
| CCCCCCCCCCCCCCCCCCNc1nc(NCCCCCCCC)nc(NCCCN(C)C)n1 [Compound N8N18D6] | 2.2% | 4.1% |
| CCCCCCCCCCCNc1nc(NCCCCCCCC)nc(NCCCN2CCOCC2)n1 [Compound N8N11D8] | 0.0% | 0.1% |
| CCCCCCCCCCCCCCCNc1nc(NCCCCCCCCCCC)nc(NCCN2CCN(C)CC2)n1 [Compound N11N15D5] | 0.2% | 0.8% |
| CCCCCCCCCCCCCCCCCCNc1nc(NCCCCCCCCC)nc(NCCN2CCCC2)n1 [Compound N9N18D3] | 2.0% | 4.7% |
| CCCCCCCCCCCCCCCNc1nc(NCCCCCCCCCCCCCCC)nc(NCCCN2CCN(C)CC2)n1 [Compound N15N15D9] | 0.4% | 0.0% |
| CCCCCCCCCCCCCCCSc1nc(NCCCN2CCN(C)CC2)nc(SCCCCCCCCCC)n1 [Compound S10S15D9] | 3.9% | 3.8% |
| CCCCCCCCCCCSc1nc(NCCCN2CCOCC2)nc(SCCCCCCCCCC)n1 [Compound S10S11D8] | 16.4% | 8.3% |
| CCCCCCCCCCSc1nc(NCCN2CCCC2)nc(SCCCCCCCCC)n1 [Compound S9S10D3] | 10.3% | 70.1% |
| CCCCCCCCCCCCCCCCCCSc1nc(NCCCN2CCN(C)CC2)nc(SCCCCCCCC)n1 [Compound S8S18D9] | 17.7% | 28.1% |
| CCCCCCCCCCCCCCSc1nc(NCCN2CCN(C)CC2)nc(SCCCCCCCCCCCC)n1 [Compound S12S14D5] | 0.2% | 3.6% |

| SMILES | Absolute DNA transfection efficiency in HEK293 cells [1] | Absolute mRNA transfection efficiency in HEK293 cells [2] |
| --- | --- | --- |
| CCCCCCCCCCCCCCCCCCSc1nc(NCCN(CC)CC)nc(SCCCCCCCCCCCC)n1 [Compound S12S18D7] | 0.7% | 0.0% |
| CCCCCCCCCCCCCCCCCCSc1nc(NCCCN2CCN(C)CC2)nc(SCCCCCCCCCCCCCC)n1 [Compound S14S18D9] | 0.5% | 0.6% |
| CCCCCCCCCCCNc1nc(NCCCCCCCCCCC)nc(NCCN2CCCCC2)n1 [Compound N11N11D4] | 0.0% | 4.1% |
| CCCCCCCCCCCCCCCCNc1nc(NCCCCCCCCCCCC)nc(NCCN2CCCCC2)n1 [Compound N12N16D4] | 1.2% | 0.7% |
| CCCCCCCCCCCCCCCCCCSc1nc(NCCCN(C)C)nc(SCCCCCCCCCCCCCCCC)n1 [Compound S16S18D6] | 0.2% | 1.8% |
| CCCCCCCCCCCCCCCCNc1nc(NCCCCCCCCCCCCCCCC)nc(NCC2CCN(C)CC2)n1 [Compound N16N16D10] | 0.0% | 0.0% |
| CCCCCCCCCCCCCCCCNc1nc(NCCCN(C)C)nc(N(CCCCCCCCCCCC)CCCCCCCCCCCC)n1 [N16^2N12D6] | 0.5% | 0.0% |
| CCCCCCCCCCCCCNc1nc(NCCCCCCC)nc(NCCN2CCN(C)CC2)n1 [Compound N7N13D5] | 0.9% | 0.9% |
| CCCCCCCCCCCCCCCCSc1nc(NCCCN2CCN(C)CC2)nc(SCCCCCCCCCCCCCCCC)n1 [Compound S16S16D9] | 0.5% | 0.2% |
| CCCCCCCCCNc1nc(NCCCCCC)nc(NCCCN(C)C)n1 [Compound N6N9D6] | 0.0% | 0.2% |
| CCCCCCCCCCCCCCCNc1nc(NCCCCCCCCC)nc(NCCN2CCN(C)CC2)n1 [Compound N9N15D5] | 0.2% | 1.8% |
| CCCCCCCCCCCCCCCCSc1nc(NCCN(C)C)nc(SCCCCCCCC)n1 [Compound S8S16D1] | 4.6% | 2.2% |
| CCCCCCCCCCCCN(CCCCCCCCCCCC)c1nc(NCCCCCCCCC)nc(NCCN(CC)CC)n1 [N9^2N12D7] | 0.0% | 0.2% |
| CCCCCCCCCCCNc1nc(NCCCCCC)nc(NCCN2CCOCC2)n1 [Compound N6N11D2] | 0.0% | 0.0% |
| CCCCCCCCCCCCCNc1nc(NCCCCCCCC)nc(NCCN(C)C)n1 [Compound N8N13D1] | 2.2% | 0.0% |
| CCCCCCCCCCCCNc1nc(NCCCCCC)nc(NCCN(CC)CC)n1 [Compound N6N12D7] | 0.0% | 0.0% |
| CCCCCCCCCCCCCCCCCCSc1nc(NCCCN2CCN(C)CC2)nc(SCCCCCCCCCCCCCCCC)n1 [Compound S16S18D9] | 0.4% | 0.5% |
| CCCCCCCCCSc1nc(NCCCN2CCOCC2)nc(SCCCCCCCCC)n1 [Compound S9S9D8] | 19.1% | 14.8% |
| CCCCCCCCCCCCCCCCCCNc1nc(NCCN2CCCCC2)nc(N(CCCCCCCCCCCC)CCCCCCCCCCCC)n1 [N18^2N12D4] | 0.9% | 1.2% |
| CCCCCCCCCCCCCNc1nc(NCC2CCN(C)CC2)nc(N(CCCCCCCCCCCC)CCCCCCCCCCCC)n1 [N13^2N12D10] | 0.0% | 0.0% |
| CCCCCCCCCCCCCCCCCCSc1nc(NCCN2CCOCC2)nc(SCCCCCCCCCCCCCCCC)n1 [Compound S16S18D2] | 0.0% | 0.0% |
| CCCCCCCCCSc1nc(NCCN2CCCCC2)nc(SCCCCCCCCC)n1 [Compound S9S9D4] | 14.5% | 2.1% |
| CCCCCCCCCCCCNc1nc(NCCCCCC)nc(NCCN2CCCC2)n1 [Compound N6N12D3] | 0.2% | 0.5% |
